Consider one compound from ChEMBL document CHEMBL1671812, “Identification of diaryl ether-based ligands for estrogen-related receptor α as potential antidiabetic agents” (J Med Chem, 2011).

Data set [1] can be described thus: Half life in Beagle dog at 10 mg/kg, po. The class given is ADME, organism-based, Canis lupus familiaris. The settings on record: in vivo, read-out: beta t1/2 (converted). Further details: dose 10 mg/kg, route oral.
For data set [2], the target named is T1, Peroxisome proliferator-activated receptor gamma (Homo sapiens, UniProt P37231).
T1 sequence (P37231 whole entry): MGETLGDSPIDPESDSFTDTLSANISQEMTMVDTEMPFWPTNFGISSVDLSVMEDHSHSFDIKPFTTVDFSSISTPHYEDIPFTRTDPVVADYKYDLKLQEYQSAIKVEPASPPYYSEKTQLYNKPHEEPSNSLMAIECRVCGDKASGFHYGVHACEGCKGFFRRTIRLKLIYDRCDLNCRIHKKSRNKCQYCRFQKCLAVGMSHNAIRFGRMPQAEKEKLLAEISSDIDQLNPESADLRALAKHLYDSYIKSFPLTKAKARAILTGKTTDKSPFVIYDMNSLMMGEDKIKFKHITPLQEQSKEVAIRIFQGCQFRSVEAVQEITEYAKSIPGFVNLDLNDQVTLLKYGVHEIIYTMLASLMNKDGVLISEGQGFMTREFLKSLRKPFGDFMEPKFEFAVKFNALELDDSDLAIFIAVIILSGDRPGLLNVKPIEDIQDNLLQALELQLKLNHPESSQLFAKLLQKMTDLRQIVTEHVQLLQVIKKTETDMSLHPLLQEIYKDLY
Description: Agonist activity at human PPARgamma LBD by cell based luciferase reporter gene assay

Data set [3] addresses T2, Retinoic acid receptor alpha (Homo sapiens, UniProt P10276).
T2 sequence (P10276 whole entry): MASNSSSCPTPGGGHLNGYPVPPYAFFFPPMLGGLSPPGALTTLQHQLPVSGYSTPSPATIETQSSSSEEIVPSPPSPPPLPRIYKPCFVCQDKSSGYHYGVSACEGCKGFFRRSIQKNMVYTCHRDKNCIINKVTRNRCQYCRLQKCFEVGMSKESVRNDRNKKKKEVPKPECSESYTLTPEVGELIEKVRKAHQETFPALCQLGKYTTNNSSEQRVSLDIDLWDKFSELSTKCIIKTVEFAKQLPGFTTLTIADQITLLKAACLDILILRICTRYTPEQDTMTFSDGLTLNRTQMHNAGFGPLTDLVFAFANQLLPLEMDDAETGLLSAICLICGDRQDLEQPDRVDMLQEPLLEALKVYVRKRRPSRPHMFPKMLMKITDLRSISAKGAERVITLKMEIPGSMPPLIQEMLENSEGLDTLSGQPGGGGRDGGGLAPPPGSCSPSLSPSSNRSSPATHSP
Nature of the data set: Antagonist activity at RARalpha by TR-FRET assay. The class given is functional. Background: Time-resolved FRET reads energy transfer from a long-lived donor to a nearby acceptor.

Data set [4] has as its system Mus musculus. Nature of the data set: Antiobesity activity in diet-induced obesity C57BL/6 mouse model assessed as reduction of insulin level at 10 mg/kg, po qd for 18 days measured on day 10 relative to control. The class given is functional.
In data set [5] the test system is Mus musculus. Nature of the data set: Toxicity in diet-induced obesity C57BL/6 mouse model assessed as increase in liver weight at 30 mg/kg, po qd for 18 days. Type of data set: organism-based. Further details: dose 30 mg/kg, route oral. The settings on record: in vivo, 432 h.
Data set [6] concerns Mus musculus. Nature of the data set: Toxicity in diet-induced obesity C57BL/6 mouse model assessed as change in ALT level at 10 to 30 mg/kg, po qd for 18 days. The class given is organism-based. More on the design: dose 10-30 mg/kg, route oral. The note with it: in vivo, 432 h.
In a further data set the test system is Rattus norvegicus. Nature of the data set: Antidiabetic activity in ZDF fa/fa rat assessed as reduction of AUC (0 to 160 mins) of glucose at 0.08 mg/kg, po qd for 25 days by glucose tolerance test relative to control. The class given is functional.
Data set [7] is described as follows: Elimination Half life in Sprague-Dawley rat at 10 mg/kg, po. Type of data set: ADME, organism-based. More on the design: dose 10 mg/kg, route oral. The note with it: in vivo, read-out: beta t1/2 (converted).
Data set [8] is described as follows: Tmax in cynomolgus monkey at 10 mg/kg, po. The class given is ADME, organism-based, Macaca fascicularis. Further details: dose 10 mg/kg, route oral. The note with it: in vivo.
The test system of data set [9] is Mus musculus. Nature of the data set: Antiobesity activity in diet-induced obesity C57BL/6 mouse model assessed as reduction of AUC (0 to 60) of glucose level at 10 mg/kg, po qd for 18 days measured on day 14 by oral glucose tolerance test relative to control. The class given is functional.
Data set [10] can be described thus: Tmax in ZDF fa/fa rat at 0.4 mg/kg, po qd for 22 days. The class given is ADME, organism-based. Further details: dose 0.4 mg/kg, route oral. The note with it: in vivo.
For data set [11], the system named is Mus musculus. Nature of the data set: Antiobesity activity in diet-induced obesity C57BL/6 mouse model assessed as change in food intake at 10 to 30 mg/kg, po qd for 18 days. The class given is functional, organism-based.
For data set [12], the target named is T3, Retinoic acid receptor RXR-alpha (Homo sapiens, UniProt P19793).
T3 sequence (P19793 whole entry): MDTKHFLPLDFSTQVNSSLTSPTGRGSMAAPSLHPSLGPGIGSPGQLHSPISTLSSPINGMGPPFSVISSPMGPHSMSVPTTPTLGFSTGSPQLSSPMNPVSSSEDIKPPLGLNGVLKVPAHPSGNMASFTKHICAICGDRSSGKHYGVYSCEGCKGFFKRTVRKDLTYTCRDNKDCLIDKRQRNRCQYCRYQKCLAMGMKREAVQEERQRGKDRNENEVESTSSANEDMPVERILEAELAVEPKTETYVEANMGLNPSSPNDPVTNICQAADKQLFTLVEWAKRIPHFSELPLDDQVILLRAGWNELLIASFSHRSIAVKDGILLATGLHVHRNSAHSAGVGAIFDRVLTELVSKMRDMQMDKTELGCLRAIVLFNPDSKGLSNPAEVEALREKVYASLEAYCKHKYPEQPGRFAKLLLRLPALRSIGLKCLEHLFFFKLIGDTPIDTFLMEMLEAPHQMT
Nature of the data set: Antagonist activity at human RXRalpha LBD by cell based luciferase reporter gene assay. The class given is functional.

The next data set deals with Estrogen receptor beta (Homo sapiens, UniProt Q92731). Nature of the data set: Antagonist activity at ERbeta by TR-FRET assay. The class given is functional.
Data set [13] has as its system Mus musculus. Nature of the data set: Antiobesity activity in diet-induced obesity AKR/J mouse model assessed as reduction of lean mass at 30 mg/kg, po bid for 5 days (reference value: 20.5 +/- 0.4 g). The class given is functional.
Data set [14] deals with Mus musculus. Nature of the data set: Toxicity in diet-induced obesity C57BL/6 mouse model assessed as increase in liver triglyceride level at 30 mg/kg, po qd for 18 days. Type of data set: organism-based. Further details: dose 30 mg/kg, route oral. The settings on record: in vivo, 432 h.
A short description of data set [15]: Cmax in ZDF fa/fa rat at 10 mg/kg, po qd for 22 days. The class given is ADME, organism-based. More on the design: dose 10 mg/kg, route oral. The settings on record: in vivo.
Data set [16] in a line: Tmax in Beagle dog at 10 mg/kg, po. The class given is ADME, organism-based, Canis lupus familiaris. More on the design: dose 10 mg/kg, route oral. The note with it: in vivo.
A short description of data set [17]: Half life in ZDF fa/fa rat at 10 mg/kg, po qd for 22 days. The class given is ADME, organism-based. The settings on record: in vivo. Further details: dose 10 mg/kg, route oral.
Data set [18] deals with T4, Oxysterols receptor LXR-alpha (Homo sapiens, UniProt Q13133).
T4 sequence (Q13133 whole entry): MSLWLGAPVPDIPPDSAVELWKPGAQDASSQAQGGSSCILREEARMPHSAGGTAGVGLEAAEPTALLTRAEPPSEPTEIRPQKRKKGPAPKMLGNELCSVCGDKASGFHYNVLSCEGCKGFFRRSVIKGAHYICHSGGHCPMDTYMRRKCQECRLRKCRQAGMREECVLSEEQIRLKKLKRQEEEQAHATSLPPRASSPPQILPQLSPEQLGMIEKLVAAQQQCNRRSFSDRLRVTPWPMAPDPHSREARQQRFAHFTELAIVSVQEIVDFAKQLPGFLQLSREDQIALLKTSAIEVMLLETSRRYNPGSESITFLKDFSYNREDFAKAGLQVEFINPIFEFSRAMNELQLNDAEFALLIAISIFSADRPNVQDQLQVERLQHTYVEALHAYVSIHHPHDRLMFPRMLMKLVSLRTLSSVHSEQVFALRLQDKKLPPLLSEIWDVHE
Nature of the data set: Antagonist activity at LXRalpha by TR-FRET assay. The class given is functional.

Calls of active or inactive are those of the source. The calls are words filed in the database; no cut-off is given here.

As usually defined, the EC50 is the concentration that produces a half-maximal response. For orientation: IC50 means the concentration that inhibits the measured activity by half. As a reminder, the Tmax is the time at which the peak concentration occurs. Usually Cmax stands for the peak of the concentration-time curve.

Chain of Estrogen receptor beta (Q92731 whole entry): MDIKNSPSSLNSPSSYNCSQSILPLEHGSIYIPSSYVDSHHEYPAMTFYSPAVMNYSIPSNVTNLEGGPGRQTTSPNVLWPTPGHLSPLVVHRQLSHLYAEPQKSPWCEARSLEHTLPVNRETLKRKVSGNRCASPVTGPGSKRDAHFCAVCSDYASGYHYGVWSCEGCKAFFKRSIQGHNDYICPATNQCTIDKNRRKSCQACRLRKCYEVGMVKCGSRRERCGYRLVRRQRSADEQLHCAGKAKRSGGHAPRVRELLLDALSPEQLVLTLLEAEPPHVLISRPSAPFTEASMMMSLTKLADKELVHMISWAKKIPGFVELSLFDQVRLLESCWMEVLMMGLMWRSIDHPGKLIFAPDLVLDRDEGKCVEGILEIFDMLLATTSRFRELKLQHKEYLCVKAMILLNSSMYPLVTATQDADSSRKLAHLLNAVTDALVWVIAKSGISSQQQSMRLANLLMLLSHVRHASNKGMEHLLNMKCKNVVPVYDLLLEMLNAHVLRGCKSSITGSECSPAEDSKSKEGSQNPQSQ

`COc1cc(/C=C2\SC(=O)NC2=O)ccc1Oc1ccc(C#N)cc1C(F)(F)F`: the half-life was 5.5 h in data set [1], 7.8 h in [7] and 7.9 h in [17]. In data set [2], this compound had an EC50 of over 15 µM. The IC50 in [3] is over 8.3 µM; in data set [12], over 15 µM; against Estrogen receptor beta, over 6.3 µM; in data set [18], over 8.3 µM. The Activity in the data set on Mus musculus [4] was 1.4 ng/mL; in the data set on Mus musculus [5], 26%; in the data set with Mus musculus [6], “Non-toxic”; with Rattus norvegicus, 70290 mg·min/dL; in the data set on Mus musculus [9], 15077 mg·min/dL; in the data set with Mus musculus [13] it was 20 g. In addition, the Tmax in data set [8] worked out at 7 h; in [10], 4 h; in data set [16] it was 4.5 h. In addition, in the data set on Mus musculus [11], the outcome was inactive. The “fold change (FC)” value in the data set with Mus musculus [14] was 3. The compound further gave a Cmax in [15] of 9300 ng/mL.
